Source: ChEMBL document CHEMBL1127179, “Synthesis and 5-HT3 receptor agonist activity of arylureas derived from histamine” (Bioorg Med Chem Lett, 1993)

Assays:
[1] = molecular target: Serotonin 3 (5-HT3) receptor (Homo sapiens) (UniProt P46098+A5X5Y0+O95264+Q70Z44+Q8WXA8); assay: Tested for 5-hydroxytryptamine 3 receptor antagonist activity by inhibiting the 5-HT evoked Bezold-Jarisch reflex; format: functional
[2] = molecular target: Serotonin 3 (5-HT3) receptor; assay: Binding affinity for the 5-hydroxytryptamine 3 receptor was evaluated in vitro by examining its ability to displace [3H]-BRL 43694.; format: protein-complex assay

Structure (SMILES)	-Log ED50 [1]	Log Ki [2]
COc1ccc(F)cc1NC(=O)NCCc1c[nH]cn1	7.4	-7.69
CCOc1ccccc1NC(=O)NCCc1c[nH]cn1	7.2	-7.35
COc1ccccc1NC(=O)NCCc1c[nH]cn1	7	-7.55
COc1cc(F)ccc1NC(=O)NCCc1c[nH]cn1	7	-7.39
NCCc1c[nH]c2ccc(O)cc12	7.4	–
Cn1nc(C(=O)NCCc2c[nH]cn2)c2ccccc21	6.9	-7.84
COc1ccc(Cl)cc1NC(=O)NCCc1c[nH]cn1	6.8	-8.86
